Test results as given in patent publication US20100331233A1, “CRYSTAL OF XPA AND ERCC1 COMPLEX AND USES THEREOF” (priority 2007, published 2010).
No end group written: not given here.

Experiments:
[1] = system: NER activity in HeLa cell extracts; assay: In vitro NER assay: excision of a 1,3-intrastrand cisplatin adduct from plasmid in HeLa cell extract with XPA peptide; assay type: biochemical
ERCC1-XPF = biological target: T1, ERCC1-XPF (Homo sapiens, UniProt P07992); assay: Nuclease assay: incision of stem-loop DNA substrate by purified ERCC1-XPF; assay type: biochemical; conditions: 92 μM peptide
T1 sequence (P07992 1-297): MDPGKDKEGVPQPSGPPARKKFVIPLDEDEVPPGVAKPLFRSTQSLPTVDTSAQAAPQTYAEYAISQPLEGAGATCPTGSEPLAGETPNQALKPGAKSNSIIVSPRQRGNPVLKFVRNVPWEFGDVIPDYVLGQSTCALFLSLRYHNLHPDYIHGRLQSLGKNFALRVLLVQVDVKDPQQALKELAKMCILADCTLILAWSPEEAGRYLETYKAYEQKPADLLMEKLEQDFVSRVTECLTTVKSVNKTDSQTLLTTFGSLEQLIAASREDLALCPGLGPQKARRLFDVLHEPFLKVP
T1 sequence (Q92889 1-916 partner): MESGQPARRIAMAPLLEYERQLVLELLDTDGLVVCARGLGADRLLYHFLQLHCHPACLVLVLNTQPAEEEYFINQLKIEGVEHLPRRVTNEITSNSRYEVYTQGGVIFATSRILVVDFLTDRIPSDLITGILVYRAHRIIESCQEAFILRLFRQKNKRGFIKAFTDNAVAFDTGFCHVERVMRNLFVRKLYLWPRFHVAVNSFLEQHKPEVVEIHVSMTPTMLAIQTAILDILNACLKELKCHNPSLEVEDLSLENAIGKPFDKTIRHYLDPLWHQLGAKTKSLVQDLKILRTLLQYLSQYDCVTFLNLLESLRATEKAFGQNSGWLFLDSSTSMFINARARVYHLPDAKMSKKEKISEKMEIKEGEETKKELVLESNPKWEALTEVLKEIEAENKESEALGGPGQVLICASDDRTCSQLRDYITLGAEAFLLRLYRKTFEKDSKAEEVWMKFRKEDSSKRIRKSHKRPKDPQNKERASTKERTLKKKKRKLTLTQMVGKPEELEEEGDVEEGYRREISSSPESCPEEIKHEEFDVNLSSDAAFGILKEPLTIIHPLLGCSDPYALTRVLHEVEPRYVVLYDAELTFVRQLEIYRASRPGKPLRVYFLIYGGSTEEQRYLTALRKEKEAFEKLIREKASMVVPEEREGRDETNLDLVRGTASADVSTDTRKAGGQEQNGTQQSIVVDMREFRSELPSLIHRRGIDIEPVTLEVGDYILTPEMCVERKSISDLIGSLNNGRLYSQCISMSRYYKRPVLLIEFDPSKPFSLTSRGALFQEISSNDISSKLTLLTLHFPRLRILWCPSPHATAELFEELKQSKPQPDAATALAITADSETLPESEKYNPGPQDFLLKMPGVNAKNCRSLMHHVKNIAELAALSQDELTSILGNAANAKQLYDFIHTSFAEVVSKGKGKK
Method: Nuclease assay. A substrate consisting of a 12 base pair stem with a 22 nucleotide loop (5′-[…](T)22[…]; SEQ ID NO:7) was 5′ end labeled using a T4 polynucleotide kinase and [γ-^32P]-ATP. […] The final reaction volume was 15 μl.

ERCC192-214 = biological target: T2, ERCC192-214 (Homo sapiens, UniProt P07992); assay: 15N HSQC NMR chemical shift perturbation of 15N-labeled ERCC1; assay type: binding; conditions: 15N HSQC spectrum of ERCC1-XPA complex; read-out: dissociation equilibrium constant implied by slow-exchange regime
T2 construct: an ERCC1 central domain fragment consisting of amino acids 92-214 preceded by an N-terminal hexahistidine tag; made in house; host or cells: E. coli BL21(DE3), M9 minimal media with 15N-labeled NH4Cl
T2 sequence (P07992 92-214): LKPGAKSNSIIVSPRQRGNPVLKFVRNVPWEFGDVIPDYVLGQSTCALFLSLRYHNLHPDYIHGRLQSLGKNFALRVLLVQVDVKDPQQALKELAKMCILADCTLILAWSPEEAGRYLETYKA
Method: FIG. 3 illustrates the binding of XPA67-80 in a shallow groove of ERCC1. (A) A comparison of the two dimensional HSQC spectra for ^15N-labeled ERCC192-214 in the presence and absence of an unlabeled XPA67-80 peptide. The ^15N HSQC spectra reveal significant chemical shift changes for some ERCC1 residues (labeled) in the absence or presence of unlabeled XPA67-80. (B) Combined average chemical shift perturbations are calculated as Δχave=[((Δχ1H)^2+(Δχ15N/5)^2)/2)]^1/2 for each backbone amide of ERCC1 and shown as a histogram.
NMR experiments and determination of the structure of XPA-ERCC1 complex. All NMR data were acquired in the NMR Buffer described above. […] Backbone assignments of the free ERCC192-214 and ERCC1-XPA67-80 complex were performed using a standard set of triple-resonance experiments: HNCA/HN(CO)CA, HN(CA)CB/HN(COCA)CB and HNCO/HN(CA)CO.
Identification of the ERCC1 binding site in complex with XPA. The binding site for XPA on the surface of ERCC1 (FIG. 2B) was identified using two dimensional HSQC experiments. […] The ^15N HSQC spectrum of the ERCC1-XPA complex is consistent with a slow-exchange regime, implying a dissociation equilibrium constant below 1 μM for the complex. The XPA binding site on the ERCC1 central domain was identified using the backbone assignments for […] alone and in complex with XPA (see below). […]

KIIDTGGGFILEEE [XPA67-80]
NER activity at 92 μM peptide ([1]; HeLa cell extract, 92 μM): completely abolishes NER activity
effect on NER excision of the lesion-containing oligonucleotide ([1]; HeLa cell free extract, plasmid with 1,3-cisplatin intrastrand crosslink, peptide 46 nM to 92 μM): inhibits the in vitro NER reaction
effect on intrinsic nuclease activity of ERCC1-XPF (ERCC1-XPF; 0.4 mM MnCl2): do not affect
effect on intrinsic nuclease activity of ERCC1-XPF (ERCC1-XPF; 0.4 mM MnCl2, listed as XPA peptide): has no effect
Kd (ERCC192-214): < 1000 nM
